From US9657351B2, “MRNA-based gene expression for personalizing patient cancer therapy with an MDM2 antagonist” (Hoffmann-La Roche Inc., priority 2013, dated 2017)

Legend:
Assay in all cases: COMPOUND A In Vitro Assay
Type in all cases: cell-based
[1] = tested on: NCI-H292; details: Homo sapiens, Lung, TP53 Wild type
Procedure, shortened: (§1)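 Screening format: high throughput. Agent: RG7112 (MDM2 antagonist). Cells: diverse human cancer lines. Derived value: IC50, with the cut-offs sensitive <=1 and resistant >=10.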

[2] = tested on: NCI-H2081; details: Homo sapiens, Lung, TP53 Wild type
Procedure, shortened: as §1

[3] = tested on: SK-HEP-1; details: Homo sapiens
Procedure, shortened: as §1

[4] = tested on: DLD-1; details: Homo sapiens, Intestine, large, colon, TP53 Mutant
Procedure, shortened: as §1

[5] = tested on: IM-9; details: Homo sapiens
Procedure, shortened: as §1

[6] = tested on: TT; details: Homo sapiens, Thyroid gland, TP53 Wild type
Procedure, shortened: as §1

[7] = tested on: NCI-H1155; details: Homo sapiens, Lung, TP53 Mutant
Procedure, shortened: as §1

[8] = tested on: RT4; details: Homo sapiens, RT-4, Urinary, bladder, TP53 Wild type
Procedure, shortened: as §1

[9] = tested on: HPAF-II; details: Homo sapiens, Pancreas, TP53 Mutant
Procedure, shortened: as §1

[10] = tested on: A-172; details: Homo sapiens
Procedure, shortened: as §1

[11] = tested on: NCI-H2023; details: Homo sapiens, Lung, TP53 Mutant
Procedure, shortened: as §1

[12] = tested on: Raji; details: Homo sapiens, Lymphocyte B, TP53 Mutant
Procedure, shortened: as §1

[13] = tested on: Calu-3; details: Homo sapiens, Lung, TP53 Mutant
Procedure, shortened: as §1

[14] = tested on: SUM-44PE; details: Homo sapiens, Breast, TP53 Wild type
Procedure, shortened: as §1

[15] = tested on: KATO-III; details: Homo sapiens, Stomach, TP53 Mutant
Procedure, shortened: as §1

[16] = tested on: LoVo; details: Homo sapiens, Intestine, large, colon, TP53 Wild type
Procedure, shortened: as §1

[17] = tested on: K-562; details: Homo sapiens, K562, Bone marrow, TP53 Mutant
Procedure, shortened: as §1

[18] = tested on: MC/CAR; details: Homo sapiens
Procedure, shortened: as §1

[19] = tested on: MCF7; details: Homo sapiens
Procedure, shortened: as §1

[20] = tested on: NCI-H446; details: Homo sapiens, Lung, TP53 Mutant
Procedure, shortened: as §1

[21] = tested on: CEM/C2; details: Homo sapiens, Lymphocyte T, peripheral blood, TP53 Mutant
Procedure, shortened: as §1

[22] = tested on: KYSE-520; details: Homo sapiens, Esophagus, TP53 Mutant
Procedure, shortened: as §1

[23] = tested on: HARA; details: Homo sapiens, Lung, TP53 Mutant
Procedure, shortened: as §1

[24] = tested on: MKN-1; details: Homo sapiens, Muscle, smooth, stomach, TP53 Mutant
Procedure, shortened: as §1

[25] = tested on: MKN-28; details: Homo sapiens, Stomach, TP53 Mutant
Procedure, shortened: as §1

[26] = tested on: CCRF-CEM; details: Homo sapiens, Lymphocyte T, peripheral blood, TP53 Mutant
Procedure, shortened: as §1

[27] = tested on: NCI-H2170; details: Homo sapiens, Lung, TP53 Mutant
Procedure, shortened: as §1

[28] = tested on: SK-N-SH; details: Homo sapiens
Procedure, shortened: as §1

[29] = tested on: SCaBER; details: Homo sapiens, Urinary, bladder, TP53 Mutant
Procedure, shortened: as §1

[30] = tested on: HEC-1-A; details: Homo sapiens, Uterus, endometrium, TP53 Mutant
Procedure, shortened: as §1

[31] = tested on: SUM52PE; details: Homo sapiens, Breast, TP53 Wild type
Procedure, shortened: as §1

[32] = tested on: HMCB; details: Homo sapiens, Skin, TP53 Mutant
Procedure, shortened: as §1

[33] = tested on: A-375; details: Homo sapiens
Procedure, shortened: as §1

[34] = tested on: HCC1954; details: Homo sapiens, Breast, mammary gland, TP53 Mutant
Procedure, shortened: as §1

[35] = tested on: U-937; details: Homo sapiens, Pleura, TP53 Mutant
Procedure, shortened: as §1

[36] = tested on: NCI-H209; details: Homo sapiens, Lung, TP53 Mutant
Procedure, shortened: as §1

Question: Which IC50 [1] does the source give for CCOc1cc(C(C)(C)C)ccc1C1=N[C@@](C)(c2ccc(Cl)cc2)[C@@](C)(c2ccc(Cl)cc2)N1C(=O)N1CCN(CCCS(C)(=O)=O)CC1 [COMPOUND A] here?
Answer: The IC50 was 1.6 µM.

Question: And the IC50 [2]?
Answer: The IC50 was 17 µM.

Question: And the IC50 ([3]; SK-HEP1, SK-HEP-1, Liver, TP53 Wild type)?
Answer: The IC50 was 0.22 µM.

Question: And the IC50 ([3]; SK-HEP1, SK-HEP-1 cells)?
Answer: Its IC50 is 0.2 µM.

Question: What about the IC50 [4] of the same molecule?
Answer: The IC50 was 5.1 µM.

Question: And the IC50 ([5]; IM-9, IM-9, Lymphocyte B, peripheral blood, TP53 Wild type)?
Answer: Its IC50 is 0.14 µM.

Question: What about the IC50 ([5]; IM-9, IM-9 cells) of the same molecule?
Answer: Its IC50 is 0.1 µM.

Question: What about the IC50 [6] of the same molecule?
Answer: The IC50 was 2 µM.

Question: And the IC50 [7]?
Answer: Its IC50 is 22 µM.

Question: And the IC50 [8]?
Answer: The IC50 was 2.4 µM.

Question: What about the IC50 [9] of the same molecule?
Answer: Its IC50 is 10 µM.

Question: And the IC50 ([10]; A 172, A-172, Brain, TP53 Wild type)?
Answer: The IC50 was 0.58 µM.

Question: And the IC50 ([10]; A 172, A-172 cells)?
Answer: Its IC50 is 0.6 µM.

Question: And the IC50 [11]?
Answer: The IC50 was 5.8 µM.

Question: What about the IC50 [12] of the same molecule?
Answer: The IC50 was 3 µM.

Question: What about the IC50 [13] of the same molecule?
Answer: The IC50 was 11 µM.

Question: What about the IC50 [14] of the same molecule?
Answer: Its IC50 is 3 µM.

Question: And the IC50 [15]?
Answer: Its IC50 is 9.7 µM.

Question: And the IC50 [16]?
Answer: Its IC50 is 1.3 µM.

Question: And the IC50 [17]?
Answer: Its IC50 is 16 µM.

Question: And the IC50 ([18]; MC/CAR cells)?
Answer: The IC50 was 0.7 µM.

Question: What about the IC50 ([18]; MC/CAR, Lymphocyte B, peripheral blood, TP53 Wild type) of the same molecule?
Answer: The IC50 was 0.69 µM.

Question: And the IC50 ([19]; MCF7, MCF7, Breast, mammary gland, TP53 Wild type)?
Answer: Its IC50 is 0.75 µM.

Question: And the IC50 ([19]; MCF7, MCF7 cells)?
Answer: Its IC50 is 0.8 µM.

Question: What about the IC50 [20] of the same molecule?
Answer: Its IC50 is 18 µM.

Question: What about the IC50 [21] of the same molecule?
Answer: Its IC50 is 9.3 µM.

Question: What about the IC50 [22] of the same molecule?
Answer: Its IC50 is 10 µM.

Question: What about the IC50 [23] of the same molecule?
Answer: Its IC50 is 19 µM.

Question: And the IC50 [24]?
Answer: The IC50 was 15 µM.

Question: What about the IC50 [25] of the same molecule?
Answer: The IC50 was 8.1 µM.

Question: What about the IC50 [26] of the same molecule?
Answer: Its IC50 is 9.7 µM.

Question: And the IC50 [27]?
Answer: The IC50 was 12 µM.

Question: What about the IC50 ([28]; Brain, TP53 Wild type) of the same molecule?
Answer: Its IC50 is 0.21 µM.

Question: And the IC50 ([28]; SK-N-SH cells)?
Answer: The IC50 was 0.2 µM.

Question: And the IC50 [29]?
Answer: Its IC50 is 8.5 µM.

Question: And the IC50 [30]?
Answer: Its IC50 is 16 µM.

Question: And the IC50 [31]?
Answer: Its IC50 is 8.7 µM.

Question: What about the IC50 [32] of the same molecule?
Answer: Its IC50 is 15 µM.

Question: What about the IC50 ([33]; A-375, A-375, Skin, TP53 Wild type) of the same molecule?
Answer: Its IC50 is 0.32 µM.

Question: What about the IC50 ([33]; A-375, A-375 cells) of the same molecule?
Answer: Its IC50 is 0.3 µM.

Question: And the IC50 [34]?
Answer: The IC50 was 12 µM.

Question: What about the IC50 [35] of the same molecule?
Answer: Its IC50 is 5.2 µM.

Question: What about the IC50 [36] of the same molecule?
Answer: Its IC50 is 11 µM.
